Data from patent US8859615B2, “Compounds, compositions and methods for reducing toxicity and treating or preventing diseases” (priority 2008, dated 2014).
Read-outs that look alike come from different tables or passages of the source.

How the values were obtained:
[1] = tested on: CD-1 mouse splenocytes; assay: Splenocyte stimulation: [3H]dThd incorporation into DNA (Table 7, FIGS. 10, 11); assay type: cell-based; settings: for proliferative activity life-span of normal mouse splenocytes in vitro: FIGS. 10 and 11; for stimulation of DNA synthesis ([3H] thymidine uptake) by mouse splenocytes / Incorporation of [3H]dThd into Mouse Splenocyte DNA (cpm): Table 7; for Incorporation of [3H]dThd into Mouse Splenocyte DNA (cpm): control 224 ± 28
Text: FIG. 10 show controls and the effects of different concentrations of compounds of the invention, at different time points, on the proliferation of cultured mouse splenocytes as measured by DNA synthesis through incorporation of radiolabeled thymidine into the cells' DNA.
FIG. 11 show controls and the effects of different concentrations of compounds of the invention, at different time points, on the proliferation of cultured mouse splenocytes as measured by DNA synthesis through incorporation of radiolabeled thymidine into the DNA.
Splenocytes were prepared from CD mice as a single cell suspension, and treated with red blood cell (RBC) lysis buffer (as described at http://www.ebioscience.com/ebioscience/specs/antibody—00/00-4333.htm) to remove RBCs. In a typical experiment, splenocyte stimulations by […] (PHA), panaxytriol (PXT) or Compound D were measured by using tritium-labeled thymidine, ^3H-dThd, as a tracer for DNA synthesis. DNA synthesis correlates with cell proliferation. The incubation mixture consisted of splenocyte suspension in RPMI 1640 medium (1.56×10^6 cells in 198.5 μl)+3 μg of PHA in 1 μl+ the test compound at various concentrations in 0.5 μl in dimethyl sulfoxide (DMSO), to a final concentration of 200 μl per microplate well. DMSO alone was used in place of the compound in DMSO as a control. The incubation was carried out in 5% CO2-humidified atmosphere at 37° C. for a designated time [e.g., 24 hr, 48 hr, 72 hr, 96 hr]. At the end of the incubation period, ^3H-dThd 1 μCi in 1 μl was added for an additional 6 hr incubation. The reaction was stopped by adding one volume of 20% trichloroacetic acid (TCA), homogenized at 3° C. and washed with 20% TCA. The precipitate was heat extracted (90°) with 10% TCA for 15 minutes to obtain the DNA fraction, which has the radiolabel incorporated, in the supernatant. The supernatant was added to a 7-fold volume of Liquicint for scintillation counting, which was accomplished with a Beckman LS 6000 IC spectrometer from Beckman Coulter Co. The incorporation of [^3H]dThd into DNA of splenocytes were measured as described above or previously (Chou et al. Phytotherap. Res. 3: 237-242, 1989). The results are depicted in FIGS. 11 and 12.
For the cell-counting assays, the cells were washed with RPMI 1640 medium and followed by centrifugation. The cell number was counted with a hemocytometer. Splenocyte suspensions (0.4×10^6 cells in 0.2 ml) in flat bottom 96-well plates were incubated with [^3H]dThd (1 μCi) for 24-hrs in the absence or presence of […] (PHA, 0.1 μg/0.2 ml) or panaxytriol (0.03-1 μM). Studies indicate that maximal stimulation occurred at 48 hrs or 72 hrs. The procedure in Table 7 was used to test the splenocytes used in the assays described herein to test the compounds of the invention, shown by PHA stimulation of DNA synthesis. […] Splenocytes from this culture were used in the assays in FIGS. 11 and 12 and the corresponding Examples.

[2] = Human PBMC lymphocyte viability by actual cell counts (hemacytometer; Tables 8A, 8B, FIG. 9); assay type: cell-based; settings: human
Text: FIGS. 9A & 9B show effects of panaxytriol and Compound D, respectively, in varying doses at 24 (▪), 72 (●), and 120 (▴) hours on human PBMC lymphocyte survival based on actual cell counts. In both cases, lower amounts of the compounds increase cell proliferation. […] Cell counts in controls without active agent were: at 24 hrs: 75.4%; at 72 hrs: 93.0%; and at 120 hrs: 85.7%. FIG. 9 parallel the experiments in FIG. 8 but used a different method to determine cell survival; the method used in FIG. 9 was actual cell counting using a hemocytometer and microscope.
The effects of panaxytriol and Compound D on the viability of normal human PBMC lymphocytes shown in Tables 8A and 8B were determined using hemacytometer/microscope determinations. PBMC cells were obtained fresh from the New York Blood Center, New York, N.Y. 10021 (Dr. S. B. Jiang). Cell counts were performed in duplicate for 0, 0.1, 0.3, 1.0, 3.0, and 10.0 μM of each compound at the end of 24 hr, 72 hr, and 120 hr incubations. Incubation was carried out in RPMI 1640 medium (GIBCO/BRL) with 10% heat inactivated fetal bovine serum. […] Acad. Sci. USA 98: 8113-8118, 2001.

[3] = tested on: leukemic CCRF CEM cells; assay: Precursor incorporation into DNA, RNA and protein (Table 9); assay type: cell-based, human
Experimental: The radioactive tracer studies were carried out as described by Chou T C, et al. Cancer Res. 43: 3074-3079, 1983.

[4] = tested on: human PMBC lymphocytes; assay: Time course of effects on proliferation of human lymphocytes (XTT and CCK-8; Table 6); assay type: cell-based; settings: Lymphocyte, read-out: Dm
Experimental: Absorbance was measured by Powerwave a XS microplate spectrophotometer.
The effect of compounds of the invention on the proliferation of human lymphocytes at different time points are shown in Table 6 as results of XTT and CCK-8 tetrazolium assays following 24-hour, 72-hour, and 120-hour incubation. […] Cultured human PMBC lymphocytes were used in the assay. The procedures employed are taught in the General Biological Methods section.

[5] = Homo sapiens, CCRF-CEM, 100 μM, 60 min, ↓ (inhibition), read-out: [3H] Leu → Protein (% Activation ↑ or Inhibition ↓)
[6] = low concentration (panaxytriol 30 μM, Compound D 6 μM), 15 min incubation

## C=C[C@H](O)C#CC#CC[C@H]1OC(C)(C)O[C@@H]1CCCCCCC [Compound (D)]
[1]
  proliferative activity life-span of normal mouse splenocytes in vitro: prolonged
[2]
  viability at 24 h, 0.1 µM: 101%
  viability at 24 h, 0.3 µM: 118%
  viability at 24 h, 1 µM: 78.4%
  viability at 24 h, 3 µM: 90.5%
  viability at 24 h, 10 µM: 7.5%
  viability at 72 h, 0.1 µM: 116%
  viability at 72 h, 0.3 µM: 108%
  viability at 72 h, 1 µM: 89.7%
  viability at 72 h, 3 µM: 66.8%
  viability at 72 h, 10 µM: 33.2%
  viability at 120 h, 0.1 µM: 78.2%
  viability at 120 h, 0.3 µM: 73.6%
  viability at 120 h, 1 µM: 102%
  viability at 120 h, 3 µM: 68%
  viability at 120 h, 10 µM: 27.4%
[3]
  effect on protein synthesis: inhibitory effects
[3]; 6 μM, 15 min, ↑ (activation)
  [3H]-AdR → RNA (% Activation ↑ or Inhibition ↓): 35.3 ↑ %
  [3H]-dThd → DNA (% Activation ↑ or Inhibition ↓): 13.2 ↑ %
[3]; 100 μM, 60 min, ↓ (inhibition)
  [3H]-AdR → RNA (% Activation ↑ or Inhibition ↓): 72.5 ↓ %
  [3H]-dThd → DNA (% Activation ↑ or Inhibition ↓): 69.5 ↓ %
[3]; 100 μM, 60 min incubation
  effect on DNA and RNA synthesis: inhibitory
[3]; Homo sapiens, CCRF-CEM, 6 μM, 15 min, ↓ (inhibition), read-out: [3H] Leu → Protein (% Activation ↑ or Inhibition ↓)
  inhibition at 6 µM: 45.2%
[3]; [5]
  inhibition at 100 µM: 69.5%
[3]; [6]
  effect on DNA and RNA synthesis: activate
[4]; 24 hr incubation
  EC50: 1.07 µM
[4]; 72 hr incubation
  EC50: 1.52 µM
[4]; 120 hr incubation
  EC50: 1.76 µM

## C=C[C@@H](O)C#CC#CC[C@@H](O)[C@H](O)CCCCCCC [panaxytriol]
[1]
  proliferative activity life-span of normal mouse splenocytes in vitro: prolonged
  stimulation of DNA synthesis ([3H] thymidine uptake) by mouse splenocytes: induced stimulation of DNA synthesis
[1]; 0.03 μM
  Incorporation of [3H]dThd into Mouse Splenocyte DNA (cpm): 227 ± 8.3 cpm
[1]; 0.1 μM
  Incorporation of [3H]dThd into Mouse Splenocyte DNA (cpm): 251 ± 18 cpm
[1]; 0.3 μM
  Incorporation of [3H]dThd into Mouse Splenocyte DNA (cpm): 290 ± 20 cpm
[1]; 1.0 μM
  Incorporation of [3H]dThd into Mouse Splenocyte DNA (cpm): 296 ± 9 cpm
[1]; listed as Panaxytriol
  stimulation of DNA synthesis ([3H] thymidine uptake) by mouse splenocytes: enhance [^3H] thymidine uptake into splenic cells in a dose-dependent manner
[2]; 0.1 μM, 24-hrs, read-out: viable cells relative to the starting point (control)
  viability at 24 h, 0.1 µM: 121%
[2]; 0.1 μM, 72-hrs, read-out: viable cells relative to the starting point (control)
  viability at 72 h, 0.1 µM: 113%
[2]; 0.1 μM, 120-hrs, read-out: viable cells relative to the starting point (control)
  viability at 120 h, 0.1 µM: 110%
[2]; 0.3 μM, 24-hrs, read-out: viable cells relative to the starting point (control)
  viability at 24 h, 0.3 µM: 140%
[2]; 0.3 μM, 72-hrs, read-out: viable cells relative to the starting point (control)
  viability at 72 h, 0.3 µM: 95.8%
[2]; 0.3 μM, 120-hrs, read-out: viable cells relative to the starting point (control)
  viability at 120 h, 0.3 µM: 105%
[2]; 1.0 μM, 24-hrs, read-out: viable cells relative to the starting point (control)
  viability at 24 h, 1 µM: 123%
[2]; 1.0 μM, 72-hrs, read-out: viable cells relative to the starting point (control)
  viability at 72 h, 1 µM: 102%
[2]; 1.0 μM, 120-hrs, read-out: viable cells relative to the starting point (control)
  viability at 120 h, 1 µM: 101%
[2]; 3.0 μM, 24-hrs, read-out: viable cells relative to the starting point (control)
  viability at 24 h, 3 µM: 104%
[2]; 3.0 μM, 72-hrs, read-out: viable cells relative to the starting point (control)
  viability at 72 h, 3 µM: 82.2%
[2]; 3.0 μM, 120-hrs, read-out: viable cells relative to the starting point (control)
  viability at 120 h, 3 µM: 74.1%
[2]; 10.0 μM, 24-hrs, read-out: viable cells relative to the starting point (control)
  viability at 24 h, 10 µM: 27.7%
[2]; 10.0 μM, 72-hrs, read-out: viable cells relative to the starting point (control)
  viability at 72 h, 10 µM: 28.5%
[2]; 10.0 μM, 120-hrs, read-out: viable cells relative to the starting point (control)
  viability at 120 h, 10 µM: 35.5%
[3]
  effect on protein synthesis: inhibitory effects
[3]; 30 μM, 15 min, ↑ (activation)
  [3H]-AdR → RNA (% Activation ↑ or Inhibition ↓): 38.0 ↑ %
  [3H]-dThd → DNA (% Activation ↑ or Inhibition ↓): 21.3 ↑ %
[3]; 100 μM, 60 min, ↓ (inhibition)
  [3H]-AdR → RNA (% Activation ↑ or Inhibition ↓): 74.4 ↓ %
  [3H]-dThd → DNA (% Activation ↑ or Inhibition ↓): 67.8 ↓ %
[3]; 100 μM, 60 min incubation
  effect on DNA and RNA synthesis: inhibitory
[3]; Homo sapiens, CCRF-CEM, 30 μM, 15 min, ↓ (inhibition), read-out: [3H] Leu → Protein (% Activation ↑ or Inhibition ↓)
  inhibition at 30 µM: 77.8%
[3]; [5]
  inhibition at 100 µM: 67.8%
[3]; [6]
  effect on DNA and RNA synthesis: activate
[4]; 24 hr incubation
  EC50: 1.64 µM
[4]; 72 hr incubation
  EC50: 3.48 µM
[4]; 120 hr incubation
  EC50: 3.17 µM
